In patent US9206125B2, “Use of compound binding to mSin3B that specifically binds to neuron restrictive silencer factor (NRSF)” (PUBLIC UNIVERSITY CORPORATION YOKOHAMA CITY UNIVERSITY, priority 2010, dated 2015):

What was measured:
[1] = system: DAOY (human medulloblastoma cell strain); assay: MTT assay using a human medulloblastoma cell strain (Example 2, relative growth); format: cell-based; conditions: DAOY cells
From the text: Cell growth effects were examined on 3,5-dimethylpiperidyl 3-methyl-4-nitrophenyl ketone (compound 155) and 1-[4-(difluoromethoxy)phenyl]-2-(3,5-dimethylpiperidyl)ethan-1-one (compound A28) (MTT assay using a human medulloblastoma cell strain).
Compounds: 3,5-dimethylpiperidyl 3-methyl-4-nitrophenyl ketone (compound 155) (purchased from SPECS); 1-[4-(difluoromethoxy)phenyl]-2-(3,5-dimethylpiperidyl)ethan-1-one (compound A28) (purchased from Enamine)
Cell: DAOY (human medulloblastoma cell strain) (provided by Kanno, Department of Neurosurgery, School of Medicine, Yokohama City University)
(§1) Medium: DMEM (High Glucose, Nacalai Tesque)
Reagent for cell counting: MTT cell counting kit (Nacalai Tesque) MTT Assay: (operations)
Day −1: DAOY was plated on three 96-well plates at 5×10^3 cells/well. These three plates were for use on day 0, day 1 and day 3, respectively. As a medium, 10% FBS-containing DMEM was used.
Day 0: MTT assay was carried out using the plate for day 0 to measure the activity at the basal cell count. With respect to the plates for day 1 and day 3, the compound was added to give a concentration of 100 μg/ml (as controls, DMEM alone and DMEM containing DMSO (solvent) were used). Specifically, the compound-containing DMEM was prepared in advance, and the compound was added to the plate through medium exchange. At this time, FBS concentration was lowered to 5% in order to prevent the masking of the compound's effect due to excessive growth signals. Day 1: MTT assay was carried out using the plate for day 1. Day 3: MTT assay was carried out using the plate for day 3. Data Analysis: Relative growths on day 1 and day 3 were calculated, with the average of MTT activities (Ab 570 nm) on day 0 in the rows of wells for addition of the respective compounds being taken, as 100.
Each experiment was performed in quadruple and each run was repeated three times. Relative values based on the values of day 0 were used to calculate data for n=12 wells and statistical tests were performed.
Test was by t-test between the cell count with DMEM alone and the cell count with the compound or DMSO.
MIT Assay: A technique for cell counting using the respiratory activity of mitochondria as an indicator. When the respiratory activity is high (the value at Ab 570 nm is high), it can be interpreted that the cell count is large.

Nav 1.8 = assay: Quantitative real time PCR of Nav 1.8 mRNA in dorsal root ganglia after nerve injury; format: in vivo, C57BL male mice; conditions: 0.5 nmol i.t., single administration 3 days after nerve injury
MOP = assay: Quantitative real time PCR of MOP mRNA in dorsal root ganglia after nerve injury; format: in vivo, C57BL male mice; conditions: 0.5 nmol i.t., single administration 3 days after nerve injury; 3, 6 and 12 hours after administration; n=3; tendency
[2] = system: DAOY (human medulloblastoma cell strain); assay: MTT assay, growth inhibition against human medulloblastoma cells (Example 3); format: cell-based; set-up: dose or concentration left out as unconfirmed; conditions: final concentration 200
Experimental: Compounds: No. 5, No. 15, No. 23, NCR 6, NCR 7, NCR 11, NCR 13, NCR 14, NCR 15
Cell: DAOY (human medulloblastoma cell strain)
as §1
Reagent for cell counting: MTT cell counting kit (Nacalai Tesque) *Hereinafter, referred to as MTT assay.
DAOY was plated on three 96-well plates at 5×10^3 cells/well. These three plates were for use on day 0, day 1 and day 3, respectively. As a medium, 10% FBS-containing DMEM was used.
The medium in the plate for day 0 was exchanged with 5% FBS-containing DMEM, and cells were cultured therein for 30 minutes. Then, MTT assay was carried out to measure the activity at the basal cell count.
With respect to the plates for day 1 and day 3, the medium was exchanged with 5% FBS-containing medium, and the compound was added simultaneously at this time (as a control, DMSO (the solvent) alone was added).
MTT assay was carried out using the plate for day 1.
MTT assay was carried out using the plate for day 3.
Relative growths on day 1 and day 3 were calculated, with the average of MTT activities (Ab 570 nm) […] in the rows of wells for the respective compounds being taken as 100. Each experiment was performed in quadruple.
Statistical test was performed by compound-treated cells and DMSO-treated cells.

[3] = system: neuropathic pain model by partial sciatic nerve ligation; assay: Electrical stimulation-induced paw withdrawal (EPW) test, hypoesthesia after nerve injury; format: in vivo, C57BL male mice; conditions: 0.5 nmol i.t. once per day from 3 days after nerve injury; observed 4 and 5 days after injury
[4] = system: neuropathic pain model by partial sciatic nerve ligation; assay: Thermal paw withdrawal test, morphine resistance after nerve injury; format: in vivo, C57BL male mice; conditions: compound 0.5 nmol i.t. from 3 days after injury; morphine 30 nmol i.pl. 5 days after injury
[5] = Day 0, basal cell count before compound addition
[6] = Day 1, compound 100 μg/ml, 5% FBS DMEM

| Structure (SMILES) | melting point [°C] | other results |
| --- | --- | --- |
| CC1CC(C)CN(CC(=O)c2ccc(OC(F)F)cc2)C1 (stereo not drawn) [compound A28, 1-[4-(difluoromethoxy)phenyl]-2-(3,5-dimethylpiperidyl)ethan-1-one] |  | Relative Growth (MTT activity, Ab 570 nm, day 0 average taken as 100) [1, 5]: 100.00 ± 6.56; Relative Growth (MTT activity, Ab 570 nm, day 0 average taken as 100) [1, 6]: 233.28 ± 1.69; time needed for the effect on Nav 1.8 and MOP expression to appear (Nav 1.8): 3 to 6 h; recovery of the lowering of expression of Nav 1.8 after nerve injury (Nav 1.8; 3, 6 and 12 hours after administration, n=3, tendency): 10-15%; recovery of the lowering of expression of MOP after nerve injury (MOP): 10-15% |
| Cc1cc(C(=O)N2C(C)CCCC2C)ccc1[N+](=O)[O-] (stereo not drawn) [NCR-17, 2,6-Dimethyl-1-(3-Methyl-4-Nitrobenzoyl)piperidine] | 99.7 to 100.5 |  |
| Cc1cc(C(=O)N2CC(C)CC(C)C2)ccc1[N+](=O)[O-] (stereo not drawn) [compound 155, 3,5-dimethylpiperidyl 3-methyl-4-nitrophenyl ketone] |  | Relative Growth (MTT activity, Ab 570 nm, day 0 average taken as 100) [1, 5]: 100.00 ± 5.08; Relative Growth (MTT activity, Ab 570 nm, day 0 average taken as 100) [1, 6]: 123.16 ± 10.03; Relative Growth (MTT activity, Ab 570 nm, day 0 average taken as 100) ([1]; Day 3, compound 100 μg/ml, 5% FBS DMEM): 105.07 ± 17.53 |
| Cc1cc(CN2CC(C)CC(C)C2)ccc1[N+](=O)[O-] (stereo not drawn) [NCR 7, 3,5-Dimethyl-1-(3-Methyl-4-Nitrobenzyl)piperidine] |  | cytotoxicity (MTT assay) [2]: cytotoxicity was observed |
| CC1CCCN(C(=O)c2ccc([N+](=O)[O-])cc2)C1 (stereo not drawn) [NCR-4, 3-Methyl-1-(4-Nitrobenzoyl)piperidine] | 70.2 to 71.3 |  |
| Cc1cc(C(=O)N2CCCC(C)C2)ccc1[N+](=O)[O-] (stereo not drawn) [NCR-3, 3-Methyl-1-(3-Methyl-4-Nitrobenzoyl)piperidine] | 82 to 82.8 |  |
| CCN(CC)C(=O)c1ccc([N+](=O)[O-])c(C)c1 [NCR-9, N,N-Diethyl-3 Methyl-4-Nitrobenzamide] | 74.5 to 76 |  |
| Cc1cc(C(=O)N(C(C)C)C(C)C)ccc1[N+](=O)[O-] [NCR-15, N,N-Diisopropyl-3-Methyl-4-Nitrobenzamide] | 107.6 to 109.7 |  |
| CC(C)CCNC(=O)CCC(=O)NCc1ccc(F)cc1 [compound 106, N-[(4-fluorophenyl)methyl]-N′-(3-methylbutyl)butane-1,4-diamide] |  | effect on hypoesthesia (pain threshold in response to C-fiber stimulation), EPW test [3]: no effect on pain threshold; peripheral morphine analgesia after nerve injury, thermal paw withdrawal test [4]: morphine analgesia was hardly recognized |
| CC1CC(C)CN(C(=O)c2ccc(Cl)cc2)C1 (stereo not drawn) [NCR-11, 3,5-Dimethyl-1-(4-Chlorobenzoyl)piperidine] | 113.5 to 115.4 |  |
| Cc1cc(C(=O)NC2CCCCC2)ccc1[N+](=O)[O-] [NCR-22, N-Cyclohexyl-3-Methyl-4-Nitrobenzamide] | 134.2 to 141 |  |
| CC1CC(C)CN(C(=O)c2ccc([N+](=O)[O-])cc2)C1 (stereo not drawn) [NCR-2, 3,5-Dimethyl-1-(4-Nitrobenzoyl)piperidine] | 120 to 125 |  |
| Cc1cc(C(=O)N(Cc2ccccc2)Cc2ccccc2)ccc1[N+](=O)[O-] [NCR-18, N,N-Dibenzyl-3-Methyl-4-Nitrobenzamide] | 105.8 to 108.7 |  |
| Cc1cc(C(=O)N2CCCC2)ccc1[N+](=O)[O-] [NCR-19, 1-(3-Methyl-4-Nitrobenzoyl)pyrrolidine] | 61.3 to 61.9 |  |
| Cc1cc(S(=O)(=O)N2CC(C)CC(C)C2)ccc1[N+](=O)[O-] (stereo not drawn) [NCR-12, 3,5-Dimethyl-1-[(3-Methyl-4-Nitrophenyl)sulfonyl]piperidine] | 132.7 to 138.5 |  |
| CC1CC(C)CN(C(=O)c2ccccc2)C1 (stereo not drawn) [NCR-6, 1-(Benzoyl)-3,5-Dimethyl piperidine] | 107.2 to 108.7 |  |
| Cc1cc(C(=O)N2CCCCC2)ccc1[N+](=O)[O-] [NCR-8, 1-(3-Methyl-4-Nitrobenzoyl)piperidine] | 71.7 to 72.2 |  |
